Results on 4 molecules are retold here after patent publication US10842765B2, “Methods of reducing or preventing oxidation of small dense ldl or membrane polyunsaturated fatty acids” (Amarin Pharmaceuticals Ireland Limited, priority 2016, dated 2020).

The test system of data set [1] is small dense LDL (sdLDL) isolated from human subjects. Nature of the data set: Glucose-induced sdLDL oxidation (MDA/TBARS), Example 10. The format is biochemical. The settings on record: 10 μM; glucose 200 mg/dL; 1 hr. On the procedure:
Vitamin E (α-tocopherol) purchased from Sigma-Aldrich was prepared in ethanol at 1.0 mM (ε=3.06×10^4 M^−1 cm^−1 at 294 nm) prior to experimental use. Test compounds were further diluted in ethanol or aqueous buffer as needed. Phosphate Buffered Saline (PBS) purchased from Sigma-Aldrich was prepared in double distilled water at 10 mM (138 mM NaCl, 2.7 mM KC, pH 7.4). Glucose prepared in PBS was added to test samples to achieve a final concentration of 11.0 mM (200 mg/dL).
LDL and sdLDL were isolated from the plasma of healthy volunteers by iodixanol density gradient ultracentrifugation and adjusted to a final apolipoprotein concentration of 10 mg/mL. […] Sample aliquots were incubated at 100° C. for 30 minutes and then assayed for the formation of thiobarbituric acid-reactive substances (TBARS), having a molar absorptivity (ε) value of 1.56×10^5 M^−1 cm^−1 at 532 nm and were derived principally from the reaction of thiobarbituric acid with malondialdehyde (MDA). Lipid oxidation was measured by the colorimetric detection of malondialdehyde (MDA), a marker of oxidative stress.
Data were presented as mean±SD for (n) separate samples or experiments. Differences between groups were analyzed using the unpaired, two-tailed Student's t-test (for comparisons between only two groups) or ANOVA followed by Student-Newman-Keuls multiple comparisons post hoc analysis (for comparisons between three or more groups). Only differences with probability values less than 0.05 were considered significant.

In data set [2] the test system is human LDL. Nature of the data set: Copper-induced unfractionated LDL oxidation, TBARS, Example 7. As to conditions: each agent 10.0 μM; 1 hour. The format is biochemical.
Data set [3] concerns the target T1, HMG-CoA reductase (Homo sapiens, UniProt P04035).
T1 sequence (P04035 1-888): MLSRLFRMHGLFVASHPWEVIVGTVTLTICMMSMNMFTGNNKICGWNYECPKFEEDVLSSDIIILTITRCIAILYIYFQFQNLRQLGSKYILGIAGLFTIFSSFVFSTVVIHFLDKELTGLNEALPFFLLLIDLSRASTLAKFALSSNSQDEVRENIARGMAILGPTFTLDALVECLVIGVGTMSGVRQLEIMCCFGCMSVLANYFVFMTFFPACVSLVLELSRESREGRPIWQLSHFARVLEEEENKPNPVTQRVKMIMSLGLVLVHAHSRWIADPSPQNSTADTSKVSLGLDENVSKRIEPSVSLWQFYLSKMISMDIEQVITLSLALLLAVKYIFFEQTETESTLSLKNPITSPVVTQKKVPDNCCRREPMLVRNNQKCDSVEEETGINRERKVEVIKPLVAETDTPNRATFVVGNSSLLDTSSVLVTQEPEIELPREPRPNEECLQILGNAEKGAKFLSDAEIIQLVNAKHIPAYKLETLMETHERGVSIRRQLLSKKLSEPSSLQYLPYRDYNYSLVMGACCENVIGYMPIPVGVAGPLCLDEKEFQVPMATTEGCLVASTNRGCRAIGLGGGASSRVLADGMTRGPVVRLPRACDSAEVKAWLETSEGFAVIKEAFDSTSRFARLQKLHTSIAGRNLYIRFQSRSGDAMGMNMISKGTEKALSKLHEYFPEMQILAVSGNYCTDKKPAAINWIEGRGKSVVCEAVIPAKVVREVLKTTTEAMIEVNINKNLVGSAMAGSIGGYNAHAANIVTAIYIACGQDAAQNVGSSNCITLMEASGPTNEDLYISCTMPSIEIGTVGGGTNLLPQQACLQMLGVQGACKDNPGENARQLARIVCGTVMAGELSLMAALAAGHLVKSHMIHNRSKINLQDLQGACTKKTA
As to conditions: primary pharmacokinetic studies; hepatic cytochrome P450 metabolism; cited from earlier work.

The test system of data set [4] is human sdLDL. Nature of the data set: Copper-induced sdLDL oxidation, TBARS, Example 7. The format is biochemical. As to conditions: each agent 10 μM; 1 hr.
Experimental: Samples were prepared at 100 μg/mL sdLDL and incubated with EPA or DHA (10.0 μM each) for 30 minutes prior to initiating lipid oxidation using 10 μM CuSO4. Samples were maintained at 37° C. in a shaking water bath for 1 hour. Lipid oxidation was measured by colorimetric assay of TBARS formation and expressed as molar equivalents of MDA.
An experiment to study the antioxidant effect of EPA in LDL and small dense LDL (“sdLDL”) was performed. LDL and sdLDL were isolated from the plasma of healthy volunteers by iodixanol density gradient ultracentrifugation, and adjusted to a final apolipoprotein concentration of 2 mg/mL. […] Lipid oxidation was initiated with 10 μM CuSO4 and monitored by the colorimetric detection of thiobarbituric acid reactive substances (TBARS) for 1 hr. Vitamin E was also incubated with sample aliquots as a positive control.
Data set [5] relates to human sdLDL. Nature of the data set: Copper-induced sdLDL oxidation, TBARS after 2 hr, Example 6. The format is biochemical. The settings on record: 1.0 μM to 10.0 μM. The protocol: An experiment to study the antioxidant effect of EPA in small dense […] performed. […] Vitamin E (α-tocopherol) was purchased from Sigma-Aldrich and prepared in ethanol at 1.0 mM (ε=3.06×10^4 M^-1 cm^-1 at 294 nm) just prior to experimental use. All test compounds were further diluted in ethanol or aqueous buffer as needed. Venous blood was collected from healthy volunteers into vacutainer tubes containing sodium EDTA. Plasma was separated by centrifugation at 3000 g for 25 min at 4° C. and adjusted to a density of 1.020 g/mL with KBr. Triglyceride-rich lipoproteins (TGRL) and LDL fractions were then isolated bysequential centrifugation at 70,000 rpm at 4° C. in a Beckman LE-80 ultracentrifuge using a Beckman 50.4Ti rotor (Beckman Coulter, Inc., Fullerton, Calif.). The TGRL fraction (with a relative density of <1.020) was aspirated from the top of the centrifugate and discarded, leaving an LDL-enriched […] relative density of 1.020 to 1.063). […] The sdLDL subfraction was retained for additional experimentation. Plasma and lipoprotein fractions were maintained at 4° C. and protected from excessive exposure to light. […] Differences between groups were analyzed using the two-tailed, Student's t-test (for comparisons between only two groups) or ANOVA followed by Dunnett or Student-Newman-Keuls multiple comparisons post-hoc analysis (for comparisons between three or more groups).

Data set [6] can be described thus: Glucose-induced membrane lipid peroxidation (LOOH) in lipid vesicles, Example 4. As to conditions: 72- and 96-hour time points; 1:30 drug-to-phospholipid mole ratio; glucose. The format is biochemical. On the procedure:
An experiment was conducted to test the ability of EPA to interfere with the effects of high glucose on membrane lipid peroxidation and organization in vesicles enriched with PUFAs. […] Vitamin E (α-tocopherol) was also purchased from Sigma-Aldrich and prepared in ethanol at 1.0 mM (ε=3.06×10^4 M^−1 cm^−1 at 294 nm) just prior to experimental use. […] All test compounds were further diluted in ethanol or aqueous buffer as needed. Glucose was prepared in saline buffer (0.5 mM HEPES, 154 mM NaCl, pH 7.3) at 11.0 mM (200 mg/dL). CHOD-iodide color reagent (stock) was prepared, with slight modification, as described by from El-Saadani et al. (J. […] Samples were shell-dried under nitrogen gas and placed under vacuum for 1 h to remove residual solvent. […] Lipid suspensions were then vortexed for 3 min at ambient temperature to form MLVs. All MLV samples were subjected to time-dependent autoxidation by incubating at 37° C. in an uncovered, shaking water bath. This method allows lipid peroxidation to occur gradually without requiring the use of exogenous initiators. Small aliquots (5-100 μL) of each sample were removed, immediately following MLV preparation (0 hour) and after exposing samples to oxidative conditions for 72 or 96 hour, and combined with 1.0 mL of activated CHOD-iodide color reagent. Aliquot volume was reduced with each successive time point to ensure that spectrophotometric readings were within the optimal adsorption range. Test samples were covered and incubated in darkness at room temperature for at least 4 hr. Sample absorbances were then measured against a CHOD blank at 365 nm using a Beckman DU-640 spectrophotometer. The CHOD colorimetric assay is based on the oxidation of iodide (I^−) by lipid hydroperoxide (LOOH) to form triiodide (I3^−), the quantity of which is directly proportional to the amount of LOOH present in the lipid sample. The molar absorptivity (I3^−) of I3^− is 2.46×10^4 M^−1 cm^−1 at 365 nm. […]

Data set [7] has as its system unfractionated LDL. Nature of the data set: Copper-induced unfractionated LDL oxidation, TBARS, Example 6. The format is biochemical, human. As to conditions: 1.0 μM to 10.0 μM; data not shown. On the procedure: All test compounds were further diluted in ethanol or aqueous buffer as needed. Venous blood was collected from healthy volunteers into vacutainer tubes containing sodium EDTA. […] Plasma and lipoprotein fractions were maintained at 4° C. and protected from excessive exposure to light. Prior to oxidation experiments, EDTA was removed from the lipoprotein fraction using PD-10 desalting columns (GE Healthcare, Piscataway N.J.). After equilibration of the column with phosphate buffered saline (PBS), 2.5 mL of the lipoprotein fraction was loaded on the column and the flow-through discarded. The lipoprotein was then eluted with 3 mL of PBS. The LDL fractions were further diluted with PBS to obtain a 100 μg/mL apoB100 concentration. […] Differences between groups were analyzed using the two-tailed, Student's t-test (for comparisons between only two groups) or ANOVA followed by Dunnett or Student-Newman-Keuls multiple comparisons post-hoc analysis (for comparisons between three or more groups).

On to `Cc1ccc(C)c(OCCCC(C)(C)C(=O)O)c1` [Gemfibrozil, gemfibrozil], for which the “inhibition of glucose-induced sdLDL oxidation (in words)” value (shortened to “inhibition … (in words)”) in data set [1] is “did not inhibit glucose-induced sdLDL oxidation”. Further, in data set [2], the “effect on unfractionated LDL oxidation” value is recorded as “no significant effect on unfractionated LDL oxidation”.
`O=C(O)c1cccnc1` [Niacin, nicotinic acid]: the “inhibition … (in words)” value in data set [1] is reported as “did not inhibit glucose-induced sdLDL oxidation”. Also, the “effect on unfractionated LDL oxidation” value in data set [2] is recorded as “no significant effect on unfractionated LDL oxidation”.
For the molecule `CC(C)c1c(C(=O)Nc2ccccc2)c(-c2ccccc2)c(-c2ccc(F)cc2)n1CC[C@@H](O)C[C@@H](O)CC(=O)O` [atorvastatin], the “share of circulating HMG-CoA reductase inhibitory activity accounted for by active metabolites” value in data set [3] is recorded as “approximately 70%”. Moreover, the “effect on unfractionated LDL oxidation” value in data set [2] is recorded as “did not have any significant antioxidant activity”. Besides, in data set [4], the “inhibition of sdLDL oxidation (TBARS formation) vs vehicle” value was 0.1±7%.
Consider `Cc1c(C)c2c(c(C)c1O)CC[C@@](C)(CCC[C@H](C)CCC[C@H](C)CCCC(C)C)O2` [vitamin E, α-tocopherol], for which the “inhibition of sdLDL oxidation” value in data set [5] is recorded as “did not inhibit sdLDL oxidation except at the highest concentration”. Further, the “effect on LOOH formation / lipid peroxidation” value in data set [6] is on record as “no significant effect on lipid peroxidation”. Moreover, in data set [1], the “increase of sdLDL oxidation as compared to glucose-treated controls” value worked out at 63% and the “inhibition … (in words)” value is reported as “failed to inhibit sdLDL oxidation”. For the same molecule, the “effect on unfractionated LDL oxidation” value in data set [2] was “no significant effect on unfractionated LDL oxidation”. Further, the “inhibition of LDL oxidation” value in data set [7] is reported as “did not inhibit LDL oxidation at any concentration”.
